Experiment: Anticancer human tumor 997537-175-T-J1-PDC patient-derived colon adenocarcinoma cell line growth inhibition [POLQ]
Settings: 997537-175-T-J1-PDC complex spheroid viability, combination with POLQ inhibitors; for IC50: curve of first compound; for viability, T/C: stronger effect = lower value
Experimental: Multicellular complex tumor spheroid response to Polymerase (POL) inhibitors (novobiocin, ART-558, RP6685) in combination with a variety of drugs and investigational agents in selected tumor cell lines
The POL inhibitors (novobiocin, ART-558, and RP6685) were evaluated both individually and in combination with standard of care and investigational anticancer small molecules within a complex spheroid model of solid tumors. . Complex spheroids include a stromal component modeled by human endothelial cells (HUVEC) and fibroblasts modeled by human mesenchymal stem cells (MSCs). The concentration ranges selected for each drug and investigational agent were based upon clinically achievable concentrations if the clinical Cmax of the agent was known.
Compounds. The drugs and investigational agents: novobiocin (NSC847541), ART-558 (NSC835418), RP-6685 (NSC848927), peposertib (NSC802822), ceralasertib (NSC780249), elimusertib (NSC800525), camonsertib (NSC841442), AZD-1390 (NSC803789), olaparib (NSC753686), talazoparib (NSC767125), rucaparib (NSC756644), sotorasib (NSC818433), MRTX-1133 (NSC836407), SN-38 (NSC673596), topotecan (NSC609699), epotoside (NSC141540), doxorubicin (NSC123127), gemcitabine (NSC613327), 5-fluorouracil (NSC19893), paclitaxel (NSC125973), vemurafenib (NSC761431), MSA-2 (NSC828583), SN-011 (NSC837082), adavosertib (NSC754352), prexasertib (NSC758257), carboplatin (NSC241240) and oxaliplatin (NSC266046), were obtained from the National Cancer Institute (NCI) Developmental Therapeutics Program Chemical Repository (21). The FDA-approved anticancer drug set is available from the Developmental Therapeutics Program at https://dtp.cancer.gov/organization/dscb/obtaining/. […] The stock solutions were prepared in dimethyl sulfoxide (DMSO, Sigma-Aldrich, St. Louis, MO, cat. D2650), except for the platinum compounds which were prepared in saline (Quality Biological, Gaithersburg, MD, cat. 114-055-101), at 800-fold the tested concentration and stored at -70 degrees C prior to their use. All drugs and investigational agents were tested over a range starting from a high concentration at or near the clinical Cmax and decreasing in half-log increments. If the clinical Cmax for an agent had not been determined, the highest concentration tested was 10 microM, except for SN-38, which was tested at a high concentration of 1 microM.
Cell Culture. All cells were maintained in an incubator at 37 degrees C and 5% CO2 with 95% humidity. The PDC lines were cultured according to standard operating procedures established by the NCI PDMR (https://pdmr.cancer.gov). Table 3 of the manuscript, lists the cell lines along with the number of the three cell types plated to form the mct-spheroids and media for tumor cell growth. After thawing, all PDC lines, except 997537-175-T-J1-PDC and 415267-285-R-J2-PDC, were cultured in Matrigel-coated flasks prepared with a working solution of 1X Ham's F-12 nutrient mix, without supplementation (Thermo Fisher Scientific, cat. 11765054), 100 U/mL penicillin-streptomycin (Thermo Fisher Scientific, cat. 15140122), and 2.5% Matrigel (Corning Inc., Corning, NY, cat. 354248) for the first three passages. The two PDC lines 997537-175-T-J1-PDC and 415267-285-R-J2-PDC were cultured on uncoated flasks. The 857933-349-R-J2-PDC line was cultured in 6C/Colon 1B media containing advanced DMEM/F-12 (Thermo Fisher Scientific, cat. 12634028), 10 mM HEPES (Thermo Fisher Scientific, cat. 15630080), 1X GlutaMAX supplement (Thermo Fisher Scientific, cat. 35050061), 0.1 mg/mL primocin (InvivoGen, San Diego, CA, cat. ant-pm-2), 10% defined fetal bovine serum, heat inactivated (HyClone Laboratories Inc., Logan, UT, cat. SH30070.03HI), 50% L-WRN conditioned media (ATCC, cat. CRL-3276), 1.25 mM N-Acetyl-L-cysteine (Sigma-Aldrich, cat. A9165), 10 mM nicotinamide (Sigma-Aldrich, cat. N0636), 1X B-27 supplement (Thermo Fisher Scientific, cat. 17504044), 1X N-2 supplement (Thermo Fisher Scientific, cat. […]
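Further: luminescence signal used as a surrogate for viable cells; spheroids exposed to drugs for seven days before readout.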

COc1cccc2c1C(=O)c1c(O)c3c(c(O)c1C2=O)CC(O)(C(=O)CO)CC3OC1CC(N)C(O)C(C)O1 (configuration not stated) + Nc1ccc(C#CCN(C(=O)Cc2ncc(C(F)(F)F)cc2C(F)(F)F)c2ccc(F)cc2)nn1
IC50 (second compound 0.0316 µM): 3200 nM
IC50 (second compound 0.1 µM): 1920 nM
IC50 (second compound 0.316 µM): 3540 nM
IC50 (second compound 1 µM): 2120 nM
IC50 (second compound 3.16 µM): 2850 nM
IC50 (second compound 10 µM): 2140 nM
viability, T/C (second compound 0.0316 µM, first compound 0.0316 µM): 102%
viability, T/C (second compound 0.0316 µM, first compound 0.1 µM): 97.5%
viability, T/C (second compound 0.0316 µM, first compound 0.316 µM): 89.1%
viability, T/C (second compound 0.0316 µM, first compound 1 µM): 93.5%
viability, T/C (second compound 0.0316 µM, first compound 3.16 µM): 50.4%
viability, T/C (second compound 0.0316 µM, first compound 10 µM): 12.2%
viability, T/C (second compound 0.1 µM, first compound 0.0316 µM): 99.4%
viability, T/C (second compound 0.1 µM, first compound 0.1 µM): 114%
viability, T/C (second compound 0.1 µM, first compound 0.316 µM): 99.9%
viability, T/C (second compound 0.1 µM, first compound 1 µM): 70.6%
viability, T/C (second compound 0.1 µM, first compound 3.16 µM): 34.4%
viability, T/C (second compound 0.1 µM, first compound 10 µM): 7.13%
viability, T/C (second compound 0.316 µM, first compound 0.0316 µM): 110%
viability, T/C (second compound 0.316 µM, first compound 0.1 µM): 109%
viability, T/C (second compound 0.316 µM, first compound 0.316 µM): 98.8%
viability, T/C (second compound 0.316 µM, first compound 1 µM): 87.7%
viability, T/C (second compound 0.316 µM, first compound 3.16 µM): 53.2%
viability, T/C (second compound 0.316 µM, first compound 10 µM): 13.9%
viability, T/C (second compound 1 µM, first compound 0.0316 µM): 94.1%
viability, T/C (second compound 1 µM, first compound 0.1 µM): 109%
viability, T/C (second compound 1 µM, first compound 0.316 µM): 81.8%
viability, T/C (second compound 1 µM, first compound 1 µM): 79.5%
viability, T/C (second compound 1 µM, first compound 3.16 µM): 34.8%
viability, T/C (second compound 1 µM, first compound 10 µM): 10.2%
viability, T/C (second compound 3.16 µM, first compound 0.0316 µM): 94.4%
viability, T/C (second compound 3.16 µM, first compound 0.1 µM): 107%
viability, T/C (second compound 3.16 µM, first compound 0.316 µM): 72.6%
viability, T/C (second compound 3.16 µM, first compound 1 µM): 78.8%
viability, T/C (second compound 3.16 µM, first compound 3.16 µM): 46.6%
viability, T/C (second compound 3.16 µM, first compound 10 µM): 8.26%
viability, T/C (second compound 10 µM, first compound 0.0316 µM): 94.7%
viability, T/C (second compound 10 µM, first compound 0.1 µM): 97.9%
viability, T/C (second compound 10 µM, first compound 0.316 µM): 91.4%
viability, T/C (second compound 10 µM, first compound 1 µM): 80%
viability, T/C (second compound 10 µM, first compound 3.16 µM): 34.8%
viability, T/C (second compound 10 µM, first compound 10 µM): 10.1%

— PubChem BioAssay AID1963825 (Molecular Pharmacology Branch, DTP, NCI, 2024)
